# Measurements as given in ChEMBL document CHEMBL3792284, “Synthesis of triazoloquinazolinone based compounds as tubulin polymerization inhibitors and vascular disrupting agents” (Eur J Med Chem, 2016).
# What was measured:
# [1] = Growth inhibition of human SF295 cells at 10 uM after 48 hrs by sulforhodamine B assay; type: functional; conditions: SF-295, 48 h, read-out: GI
# SK-MEL-5 = assay: Growth inhibition of human SK-MEL-5 cells at 10 uM after 48 hrs by sulforhodamine B assay; type: functional; conditions: SK-MEL-5, 48 h, read-out: GI
# [2] = Growth inhibition of human COLO205 cells at 10 uM after 48 hrs by sulforhodamine B assay; type: functional; conditions: COLO 205, 48 h, read-out: GI
# HUVEC [3] = assay: Cytotoxicity against HUVEC assessed as inhibition of cell proliferation after 72 hrs by MTS assay; type: cell-based; conditions: Homo sapiens
# HUVEC [4] = assay: Inhibition of cell invasion of HUVEC after 24 hrs by crystal violet staining based Boyden chamber assay; type: functional; conditions: Homo sapiens
# A498 = assay: Growth inhibition of human A498 cells at 10 uM after 48 hrs by sulforhodamine B assay; type: functional; conditions: A498, 48 h, read-out: GI
# [5] = Growth inhibition of human OVCAR3 cells after 48 hrs by sulforhodamine B assay; type: functional; conditions: OVCAR-3, 48 h
# [6] = Cytotoxicity against human HL-60(TB) cells assessed as cell growth at 10 uM after 48 hrs by sulforhodamine B assay; type: functional; conditions: HL-60, 48 h, read-out: Activity
# SR = assay: Growth inhibition of human SR cells after 48 hrs by sulforhodamine B assay; type: functional
# [7] = Growth inhibition of human DU145 cells after 48 hrs by sulforhodamine B assay; type: functional; conditions: DU-145, 48 h
# HT-29 [8] = assay: Growth inhibition of human HT-29 cells at 10 uM after 48 hrs by sulforhodamine B assay; type: functional; conditions: HT-29, 48 h, read-out: GI
# MCF7 [9] = assay: Growth inhibition of human MCF7 cells after 48 hrs by sulforhodamine B assay; type: functional; conditions: MCF7, 48 h
# [10] = Growth inhibition of human DU145 cells at 10 uM after 48 hrs by sulforhodamine B assay; type: functional; conditions: DU-145, 48 h, read-out: GI
# [11] = Growth inhibition of human HOP62 cells after 48 hrs by sulforhodamine B assay; type: functional; conditions: HOP-62, 48 h
# HT-29 [12] = assay: Antiproliferative activity against human HT-29 cells at 10 uM after 72 hrs by MTS assay; type: functional; conditions: HT-29, 72 h
# MDA-MB-435 = assay: Growth inhibition of human MDA-MB-435 cells after 48 hrs by sulforhodamine B assay; type: functional; conditions: MDA-MB-435, 48 h
# MDA-MB-468 [13] = assay: Growth inhibition of human MDA-MB-468 cells after 48 hrs by sulforhodamine B assay; type: functional; conditions: MDA-MB-468, 48 h
# [14] = Growth inhibition of human NCI-ADR-RES cells after 48 hrs by sulforhodamine B assay; type: functional
# [15] = Growth inhibition of human Caki1 cells after 48 hrs by sulforhodamine B assay; type: functional; conditions: CAKI-1, 48 h
# [16] = Cytotoxicity against human OVCAR3 cells assessed as cell growth at 10 uM after 48 hrs by sulforhodamine B assay; type: functional; conditions: OVCAR-3, 48 h, read-out: Activity
# K562 [17] = assay: Growth inhibition of human K562 cells after 48 hrs by sulforhodamine B assay; type: functional; conditions: K562, 48 h
# A549 = assay: Growth inhibition of human A549/ATCC cells after 48 hrs by sulforhodamine B assay; type: functional; conditions: A549, 48 h
# HT-29 [18] = assay: Growth inhibition of human HT-29 cells after 48 hrs by sulforhodamine B assay; type: functional; conditions: HT-29, 48 h
# [19] = Growth inhibition of human PC3 cells after 48 hrs by sulforhodamine B assay; type: functional; conditions: PC-3, 48 h
# Tubulin = Tubulin (Bos taurus, UniProt Q6B856+Q862L2+Q862F3); assay: Inhibition of bovine tubulin polymerization after 1 hr by fluorescence spectrometry; type: protein assay
# MDA-MB-468 [20] = assay: Growth inhibition of human MDA-MB-468 cells at 10 uM after 48 hrs by sulforhodamine B assay; type: functional; conditions: MDA-MB-468, 48 h, read-out: GI
# HUVEC [21] = assay: Inhibition of cell invasion of HUVEC at 0.1 uM after 24 hrs by crystal violet staining based Boyden chamber assay; type: functional; conditions: Homo sapiens
# HUVEC [22] = assay: Antiangiogenic activity in HUVEC assessed as disruption of capillaries after 6 hrs by inverted microscopic analysis; type: functional, cell-based; conditions: Homo sapiens
# NCI-H522 [23] = assay: Growth inhibition of human NCI-H522 cells at 10 uM after 48 hrs by sulforhodamine B assay; type: functional; conditions: NCI-H522, 48 h, read-out: GI
# [24] = Growth inhibition of human SNB75 cells after 48 hrs by sulforhodamine B assay; type: functional; conditions: SNB-75, 48 h
# U-251 = assay: Growth inhibition of human U251 cells at 10 uM after 48 hrs by sulforhodamine B assay; type: functional; conditions: U-251, 48 h, read-out: GI
# [25] = Growth inhibition of human HL-60(TB) cells after 48 hrs by sulforhodamine B assay; type: functional; conditions: HL-60, 48 h
# [26] = Growth inhibition of human HL-60(TB) cells at 10 uM after 48 hrs by sulforhodamine B assay; type: functional; conditions: HL-60, 48 h, read-out: GI
# K562 [27] = assay: Growth inhibition of human K562 cells at 10 uM after 48 hrs by sulforhodamine B assay; type: functional; conditions: K562, 48 h, read-out: GI
# [28] = Growth inhibition of human HCT116 cells after 48 hrs by sulforhodamine B assay; type: functional; conditions: HCT-116, 48 h
# HUVEC [29] = assay: Cytotoxicity against HUVEC at 1 uM after 72 hrs by MTS assay; type: cell-based; conditions: human
# MCF7 [30] = assay: Growth inhibition of human MCF7 cells at 10 uM after 48 hrs by sulforhodamine B assay; type: functional; conditions: MCF7, 48 h, read-out: GI
# [31] = Growth inhibition of human NCI-ADR-RES cells at 10 uM after 48 hrs by sulforhodamine B assay; type: functional; conditions: read-out: GI
# [32] = Growth inhibition of human SF295 cells after 48 hrs by sulforhodamine B assay; type: functional; conditions: SF-295, 48 h
# [33] = Growth inhibition of human HCT15 cells at 10 uM after 48 hrs by sulforhodamine B assay; type: functional; conditions: HCT-15, 48 h, read-out: GI
# [34] = Growth inhibition of human HOP62 cells at 10 uM after 48 hrs by sulforhodamine B assay; type: functional; conditions: HOP-62, 48 h, read-out: GI
# HUVEC [35] = assay: Inhibition of cell invasion of HUVEC at 0.01 uM after 24 hrs by crystal violet staining based Boyden chamber assay; type: functional; conditions: Homo sapiens
# HUVEC [36] = assay: Inhibition of cell invasion of HUVEC at 1 uM after 24 hrs by crystal violet staining based Boyden chamber assay; type: functional; conditions: Homo sapiens
# [37] = Growth inhibition of human HCT15 cells after 48 hrs by sulforhodamine B assay; type: functional; conditions: HCT-15, 48 h
# [38] = Growth inhibition of human PC3 cells at 10 uM after 48 hrs by sulforhodamine B assay; type: functional; conditions: PC-3, 48 h, read-out: GI
# [39] = Growth inhibition of human SNB75 cells at 10 uM after 48 hrs by sulforhodamine B assay; type: functional; conditions: SNB-75, 48 h, read-out: GI
# NCI-H522 [40] = assay: Growth inhibition of human NCI-H522 cells after 48 hrs by sulforhodamine B assay; type: functional; conditions: NCI-H522, 48 h
compound,measurement,setting,value
COc1ccc(-c2nnc3n(C)c(=O)c4ccccc4n23)cc1O,inhibition of growth at 10 µM,[1],93%
same,inhibition of growth at 10 µM,SK-MEL-5,75%
same,inhibition of growth at 10 µM,[2],83%
same,IC50,HUVEC [3],2.48 µM
same,inhibition,HUVEC [4],Dose-dependent effect
same,inhibition of growth at 10 µM,A498,66%
same,GI50,[5],0.045 µM
same,growth at 10 µM,[6],19%
same,GI50,SR,0.031 µM
same,GI50,[7],2.36 µM
same,inhibition of growth at 10 µM,HT-29 [8],81%
same,GI50,MCF7 [9],0.048 µM
same,inhibition of growth at 10 µM,[10],81%
same,GI50,[11],0.048 µM
same,inhibition at 10 µM,HT-29 [12],71%
same,GI50,MDA-MB-435,0.023 µM
same,GI50,MDA-MB-468 [13],4.33 µM
same,GI50,[14],0.062 µM
same,GI50,[15],1.22 µM
same,growth at 10 µM,[16],16%
same,GI50,K562 [17],0.04 µM
same,GI50,A549,1.84 µM
same,GI50,HT-29 [18],4.31 µM
same,GI50,[19],1.43 µM
same,IC50,Tubulin,0.15 µM
same,inhibition of growth at 10 µM,MDA-MB-468 [20],70%
same,inhibition at 0.1 µM,HUVEC [21],36%
same,Activity,HUVEC [22],Dose-dependent effect
same,inhibition of growth at 10 µM,NCI-H522 [23],100%
same,GI50,[24],0.041 µM
same,inhibition of growth at 10 µM,U-251,82%
same,GI50,[25],0.064 µM
same,inhibition of growth at 10 µM,[26],100%
same,inhibition of growth at 10 µM,K562 [27],92%
same,GI50,[28],0.057 µM
same,Activity,HUVEC [29],Non-toxic
same,inhibition of growth at 10 µM,MCF7 [30],85%
same,inhibition of growth at 10 µM,[31],85%
same,GI50,[32],1.99 µM
same,inhibition of growth at 10 µM,[33],81%
same,inhibition of growth at 10 µM,[34],90%
same,inhibition at 0.01 µM,HUVEC [35],12%
same,inhibition at 1 µM,HUVEC [36],89%
same,GI50,[37],0.052 µM
same,inhibition of growth at 10 µM,[38],73%
same,inhibition of growth at 10 µM,[39],88%
same,GI50,NCI-H522 [40],0.031 µM
